Results as given in ChEMBL document CHEMBL1149409, “Inhibition of GABA shunt enzymes' activity by 4-hydroxybenzaldehyde derivatives” (Bioorg Med Chem Lett, 2006).

Experiments:
[1] = target: T1, Succinate-semialdehyde dehydrogenase, mitochondrial (Homo sapiens, UniProt P51649); assay: Inhibitory activity against SSADH
T1 sequence (P51649 whole entry): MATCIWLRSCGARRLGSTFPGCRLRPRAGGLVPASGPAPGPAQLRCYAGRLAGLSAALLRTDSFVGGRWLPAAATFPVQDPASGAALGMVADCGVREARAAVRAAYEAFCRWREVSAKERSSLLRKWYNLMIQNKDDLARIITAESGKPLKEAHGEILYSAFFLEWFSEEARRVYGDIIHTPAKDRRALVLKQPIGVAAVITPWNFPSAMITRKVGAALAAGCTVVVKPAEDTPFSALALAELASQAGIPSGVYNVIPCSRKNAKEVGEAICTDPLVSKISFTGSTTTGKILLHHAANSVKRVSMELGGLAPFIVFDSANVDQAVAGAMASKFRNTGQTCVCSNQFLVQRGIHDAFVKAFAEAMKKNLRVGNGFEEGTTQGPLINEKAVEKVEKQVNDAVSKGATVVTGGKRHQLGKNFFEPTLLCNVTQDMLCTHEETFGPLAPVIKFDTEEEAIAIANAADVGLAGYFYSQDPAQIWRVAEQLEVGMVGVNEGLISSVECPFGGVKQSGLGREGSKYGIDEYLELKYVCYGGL

[2] = target: 4-aminobutyrate aminotransferase, mitochondrial (Homo sapiens, UniProt P80404); assay: Inhibitory activity against GABAT
Chain of 4-aminobutyrate aminotransferase, mitochondrial (P80404 whole entry): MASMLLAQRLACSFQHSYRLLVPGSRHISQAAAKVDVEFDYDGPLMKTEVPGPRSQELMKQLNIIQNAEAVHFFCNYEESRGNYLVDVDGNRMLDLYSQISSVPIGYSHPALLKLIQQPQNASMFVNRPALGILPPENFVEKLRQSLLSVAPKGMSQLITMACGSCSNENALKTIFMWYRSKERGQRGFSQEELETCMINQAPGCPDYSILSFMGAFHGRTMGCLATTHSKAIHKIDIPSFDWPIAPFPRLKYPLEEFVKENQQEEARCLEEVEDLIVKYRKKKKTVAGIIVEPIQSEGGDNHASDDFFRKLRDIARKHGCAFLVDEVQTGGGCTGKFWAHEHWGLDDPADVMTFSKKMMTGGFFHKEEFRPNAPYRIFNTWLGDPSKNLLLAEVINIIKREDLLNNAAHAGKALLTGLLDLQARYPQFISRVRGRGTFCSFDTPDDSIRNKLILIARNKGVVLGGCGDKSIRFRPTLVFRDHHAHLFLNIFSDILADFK

SMILES	IC50 [1] [µM]	IC50 [2] [µM]
COc1cc(/C=N/O)ccc1O	> 1000	> 1000
NCc1ccc(O)cc1	> 1000	15.4
O/N=C/c1ccc(O)cc1	> 1000	> 1000
O=Cc1ccc(O)cc1 [4-HYDROXYBENZALDEHYDE]	24.7	16.5
Nc1ccc(C(=O)O)cc1 [AMINOBENZOIC ACID]	> 1000	> 1000
COc1ccc(C=O)cc1 [ANISALDEHYDE]	> 1000	> 1000
OCc1ccc(O[C@@H]2O[C@H](CO)[C@@H](O)[C@H](O)[C@H]2O)cc1 [GASTRODIN]	> 1000	> 1000
O=Cc1ccc(O[C@@H]2O[C@H](CO)[C@@H](O)[C@@H](O)[C@H]2O)cc1 [HELICIDE]	> 1000	> 1000
O=C(O)c1ccc(O)cc1 [PARABEN]	> 1000	> 1000
OCc1ccc(O)cc1 [PARAHYDROXYBENZYL ALCOHOL]	> 1000	> 1000

The remaining molecules from weak to strong by IC50 [1], led by results:

IC50 [1] [µM]	IC50 [2] [µM]	SMILES
293	176	CCC(=O)c1ccc(O)cc1 [PAROXYPROPIONE]
166	188	CC(=O)c1ccc(O)cc1 [4-HYDROXYACETOPHENONE]
33.1	15.5	O=Cc1ccc(O)c([N+](=O)[O-])c1
15.6	17.1	COc1cc(C=O)ccc1O [VANILLIN]
0.35	5.48	C=CC(=O)c1ccc(O)cc1
